Measurements published in paper PMC6502651 (ChemMedChem, 2019).
Read-outs that look alike come from different tables or passages of the source.

Key:
HepG2 cells = assay: HepG2 cytotoxicity bioluminescence assay; format: cell-based; conditions: Homo sapiens, HepG2, 48 h, read-out: IC50 (HepG2)
[1] = tested on: mature stage V P. falciparum gametocytes; assay: Gametocytocidal activity; format: cell-based; conditions: Plasmodium falciparum, NF54, 48 h, read-out: Pf stage V gametocytes IC50
human HDAC6 (hHDAC6) = target: T1, human HDAC6 (hHDAC6) (Homo sapiens, UniProt Q9UBN7); assay: In vitro testing on hHDAC6
T1 sequence (Q9UBN7 1-1215): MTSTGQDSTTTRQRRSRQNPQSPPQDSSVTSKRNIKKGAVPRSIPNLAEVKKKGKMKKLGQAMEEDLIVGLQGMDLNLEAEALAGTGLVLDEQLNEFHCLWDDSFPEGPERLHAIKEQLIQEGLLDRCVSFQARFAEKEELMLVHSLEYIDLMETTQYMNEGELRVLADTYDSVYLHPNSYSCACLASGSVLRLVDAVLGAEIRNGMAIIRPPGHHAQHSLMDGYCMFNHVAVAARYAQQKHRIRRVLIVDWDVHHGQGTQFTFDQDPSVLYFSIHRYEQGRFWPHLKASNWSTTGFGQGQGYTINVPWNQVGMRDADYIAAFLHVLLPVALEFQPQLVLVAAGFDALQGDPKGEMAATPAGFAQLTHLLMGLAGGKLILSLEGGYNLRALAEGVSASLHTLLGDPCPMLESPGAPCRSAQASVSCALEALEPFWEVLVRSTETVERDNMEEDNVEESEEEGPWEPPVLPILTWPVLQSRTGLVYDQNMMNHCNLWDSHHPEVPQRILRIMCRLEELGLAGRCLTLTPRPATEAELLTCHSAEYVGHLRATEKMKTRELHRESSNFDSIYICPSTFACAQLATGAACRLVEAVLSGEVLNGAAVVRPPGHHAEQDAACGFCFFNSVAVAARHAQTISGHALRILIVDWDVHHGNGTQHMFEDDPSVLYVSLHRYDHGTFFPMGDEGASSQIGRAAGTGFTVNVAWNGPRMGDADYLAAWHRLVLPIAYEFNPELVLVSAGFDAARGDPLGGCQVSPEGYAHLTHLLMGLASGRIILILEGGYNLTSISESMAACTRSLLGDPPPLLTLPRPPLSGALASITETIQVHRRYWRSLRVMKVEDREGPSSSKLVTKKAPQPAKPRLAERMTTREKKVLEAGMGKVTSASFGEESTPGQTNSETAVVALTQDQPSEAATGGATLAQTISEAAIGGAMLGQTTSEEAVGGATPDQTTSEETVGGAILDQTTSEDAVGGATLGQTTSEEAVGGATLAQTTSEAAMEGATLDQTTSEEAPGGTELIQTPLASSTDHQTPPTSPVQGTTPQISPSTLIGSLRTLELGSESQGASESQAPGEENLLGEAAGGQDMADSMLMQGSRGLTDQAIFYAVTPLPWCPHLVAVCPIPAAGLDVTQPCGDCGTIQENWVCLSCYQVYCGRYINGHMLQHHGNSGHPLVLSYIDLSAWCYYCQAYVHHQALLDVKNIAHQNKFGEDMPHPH

[2] = tested on: 3D7 line of P. falciparum; assay: P. falciparum asexual intraerythrocytic growth inhibition; format: cell-based; conditions: for IC50: Plasmodium falciparum
[3] = tested on: P. berghei exo-erythrocytic forms; assay: P. berghei-Luc liver stage assay; format: cell-based; conditions: for Selectivity index (SI) = (mammalian cell IC50)/(Pb EEF IC50): HepG2 vs Pb EEF; for IC50: Plasmodium berghei, 48 h, read-out: Pb EEF IC50
human HDAC1 (hHDAC1) [4] = target: T2, human HDAC1 (hHDAC1) (Homo sapiens, UniProt Q13547); assay: In vitro testing on hHDAC1
T2 sequence (Q13547 whole entry): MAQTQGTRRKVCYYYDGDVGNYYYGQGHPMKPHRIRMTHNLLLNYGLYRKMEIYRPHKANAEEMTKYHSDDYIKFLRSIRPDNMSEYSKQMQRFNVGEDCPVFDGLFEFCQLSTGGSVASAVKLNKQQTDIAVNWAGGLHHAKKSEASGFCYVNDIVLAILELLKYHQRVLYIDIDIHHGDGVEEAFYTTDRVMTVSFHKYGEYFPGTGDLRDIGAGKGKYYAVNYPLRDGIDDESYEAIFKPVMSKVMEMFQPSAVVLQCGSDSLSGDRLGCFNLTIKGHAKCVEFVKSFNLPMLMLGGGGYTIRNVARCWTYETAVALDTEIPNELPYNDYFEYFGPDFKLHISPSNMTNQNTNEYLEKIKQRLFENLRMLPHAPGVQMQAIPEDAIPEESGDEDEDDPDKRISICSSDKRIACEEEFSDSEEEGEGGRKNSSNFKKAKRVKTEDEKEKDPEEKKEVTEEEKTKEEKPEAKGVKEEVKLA

human HDAC1 (hHDAC1) [5] = target: T2, human HDAC1 (hHDAC1); conditions: read-out: hHDAC1 IC50; reference HDACi; ref [22]–[23]; cited from earlier work
P. falciparum histone H4 = assay: Protein hyperacetylation assay; format: cell-based; conditions: trophozoite-stage Pf 3D7, 3 h, 5x IC50
[6] = 3D7, read-out: IC50 (Pf3D7), asexual intraerythrocytic stage P. falciparum 3D7

Compound | IC50 (HepG2 cells) [nM] | IC50 [1] [nM] | IC50 (human HDAC6 (hHDAC6)) [nM] | Selectivity index (SI) = hHDAC1/hHDAC6 (human HDAC6 (hHDAC6)) | IC50 [2, 6] [nM] | Selectivity index (SI) = (mammalian cell IC50)/(Pb EEF IC50) [3] | IC50 [3] [nM] | IC50 (human HDAC1 (hHDAC1) [4]) [nM] | IC50 (human HDAC1 (hHDAC1) [5]) [nM] | histone acetylation compared to the vehicle control (in words) (P. falciparum histone H4) | IC50 ([2]; 3D7, read-out: IC50 (Pf3D7)) [nM] | Selectivity index (SI) = (mammalian cell IC50)/(P. falciparum IC50) ([2]; HepG2 vs Pf3D7)
CN(C)c1ccc(C(=O)N(Cc2ccc(C(=O)NO)cc2)C(C)(C)C(=O)NC2CCCCC2)cc1 [Compound 2c, N-(1-(Cyclohexylamino)-2-methyl-1-oxopropan-2-yl)-4-(dimethylamino)-N-(4-(hydroxycarbamoyl)benzyl)benzamide] | > 50000 | 16300 | 89 | 5 | 95 | >3 | 20100 | 450 |  |  |  | 
O=C(NO)c1ccc(CC(=O)N(CCO)c2ccccc2)cc1 [HPOB] |  |  |  |  |  |  |  |  | 2100 |  |  | 
O=C(CCCCCCC(=O)Nc1ccccc1)NO [SAHA, vorinostat, reference compound] |  |  |  |  |  |  |  |  |  | significantly increased acetylation | 170 | 
CNC(=O)CN(Cc1ccc(C(=O)NO)cc1)C(=O)c1cc(C)cc(C)c1 [Compound 2s, N-(4-(Hydroxycarbamoyl)benzyl)-3,5-dimethyl-N-(2-(methylamino)-2-oxoethyl)benzamide] | 48000 | 16800 | 44 | 7 | 54 | 7 | 7170 | 290 |  |  |  | 889
